# pIC50, pKi: −log10 of the molar value.
# Tested on: not listed separately
# Assay: Bioavailability in rat at 10 mg/kg, po
# Assay type: ADME, organism-based
# Conditions: in vivo
row,Structure (SMILES),bioavailability [%]
1,CN1C(=O)NC(=O)[C@]12Cc1ccc(NC(=O)Cn3c(=O)n(C4CCOC4)c4ccccc43)cc1C2 (stereo partly specified),5
2,COc1cccc(-n2c(=O)n(CC(=O)Nc3ccc4c(c3)C[C@]3(C4)C(=O)NC(=O)N3C)c3ccccc32)n1,13
3,CN1C(=O)NC(=O)[C@]12Cc1ccc(NC(=O)Cn3c(=O)n(-c4ccccn4)c4ccccc43)cc1C2,36
4,CN1C(=O)NC(=O)[C@]12Cc1ccc(NC(=O)Cn3c(=O)n(-c4cnccn4)c4ccccc43)cc1C2,1
5,CN1C(=O)NC(=O)[C@]12Cc1ccc(NC(=O)Cn3c(=O)n(-c4cc(F)cc(F)c4)c4ccccc43)cc1C2,24
6,CN1C(=O)NC(=O)[C@]12Cc1ccc(NC(=O)Cn3c(=O)n(C4CCS(=O)(=O)C4)c4ccccc43)cc1C2 (stereo partly specified),0

# Continued, values first:
row,bioavailability [%],Structure (SMILES)
1,0,CN1C(=O)NC(=O)[C@]12Cc1ccc(NC(=O)Cn3c(=O)n(-c4cncnc4)c4ccccc43)cc1C2
2,1,CN1C(=O)NC(=O)[C@]12Cc1ccc(NC(=O)Cn3c(=O)n(-c4cnsc4)c4ccccc43)cc1C2
3,0,CN1C(=O)NC(=O)[C@]12Cc1ccc(NC(=O)Cn3c(=O)n(-c4nccc(C(F)(F)F)n4)c4ccccc43)cc1C2

# Target: Calcitonin gene-related peptide type 1 receptor (Homo sapiens, UniProt O60894+Q16602)
# Sequence (Q16602 whole entry, one chain of several): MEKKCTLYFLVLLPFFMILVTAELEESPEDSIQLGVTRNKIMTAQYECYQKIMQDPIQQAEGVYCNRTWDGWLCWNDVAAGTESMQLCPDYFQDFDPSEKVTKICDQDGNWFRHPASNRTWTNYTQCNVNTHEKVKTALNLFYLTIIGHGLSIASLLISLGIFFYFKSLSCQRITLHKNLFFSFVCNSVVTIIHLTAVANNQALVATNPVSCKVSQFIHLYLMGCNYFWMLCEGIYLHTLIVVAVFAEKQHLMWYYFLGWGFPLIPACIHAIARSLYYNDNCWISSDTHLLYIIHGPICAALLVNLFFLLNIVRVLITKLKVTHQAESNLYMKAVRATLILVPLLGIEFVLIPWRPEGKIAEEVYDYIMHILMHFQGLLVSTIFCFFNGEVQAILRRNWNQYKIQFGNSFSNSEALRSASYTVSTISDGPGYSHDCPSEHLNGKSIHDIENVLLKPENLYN
# Assay: Displacement of [125I]hCGRP from human cloned CGRP receptor expressed in HEK293 cells
# Assay type: cell-based
# Conditions: not given
row,Structure (SMILES),pKi
1,CN1C(=O)NC(=O)[C@]12Cc1ccc(NC(=O)Cn3c(=O)n(C4CCOC4)c4ccccc43)cc1C2 (stereo partly specified),7.70
2,COc1cccc(-n2c(=O)n(CC(=O)Nc3ccc4c(c3)C[C@]3(C4)C(=O)NC(=O)N3C)c3ccccc32)n1,7.82
3,CN1C(=O)NC(=O)[C@]12Cc1ccc(NC(=O)Cn3c(=O)n(-c4cnccn4)c4ccccc43)cc1C2,7.92
4,CN1C(=O)NC(=O)[C@]12Cc1ccc(NC(=O)Cn3c(=O)n(-c4cc(F)cc(F)c4)c4ccccc43)cc1C2,7.54
5,CN1C(=O)NC(=O)[C@]12Cc1ccc(NC(=O)Cn3c(=O)n(C4CCS(=O)(=O)C4)c4ccccc43)cc1C2 (stereo partly specified),7.77

# Second part, the compound after the results:
row,pKi,Structure (SMILES)
1,8.02,CN1C(=O)NC(=O)[C@]12Cc1ccc(NC(=O)Cn3c(=O)n(-c4cncnc4)c4ccccc43)cc1C2
2,8.17,CN1C(=O)NC(=O)[C@]12Cc1ccc(NC(=O)Cn3c(=O)n(-c4cnsc4)c4ccccc43)cc1C2
3,8.00,CN1C(=O)NC(=O)[C@]12Cc1ccc(NC(=O)Cn3c(=O)n(-c4nccc(C(F)(F)F)n4)c4ccccc43)cc1C2

# Target: Calcitonin gene-related peptide type 1 receptor (Homo sapiens, UniProt Q16602)
# Sequence (Q16602 whole entry): as the sequence (Q16602 whole entry, one chain of several) above
# Assay: Inhibition of CGRP-induced cAMP production in E10 cells
# Assay type: functional, cell-based, Mus musculus
# Conditions: not given
row,Structure (SMILES),pIC50
1,CN1C(=O)NC(=O)[C@]12Cc1ccc(NC(=O)Cn3c(=O)n(C4CCOC4)c4ccccc43)cc1C2 (stereo partly specified),7.21
2,COc1cccc(-n2c(=O)n(CC(=O)Nc3ccc4c(c3)C[C@]3(C4)C(=O)NC(=O)N3C)c3ccccc32)n1,7.27
3,CN1C(=O)NC(=O)[C@]12Cc1ccc(NC(=O)Cn3c(=O)n(-c4cnccn4)c4ccccc43)cc1C2,7.19
4,CN1C(=O)NC(=O)[C@]12Cc1ccc(NC(=O)Cn3c(=O)n(-c4cc(F)cc(F)c4)c4ccccc43)cc1C2,6.74
5,CN1C(=O)NC(=O)[C@]12Cc1ccc(NC(=O)Cn3c(=O)n(C4CCS(=O)(=O)C4)c4ccccc43)cc1C2 (stereo partly specified),7.19

# More lines, now with the values ahead:
row,pIC50,Structure (SMILES)
1,7.30,CN1C(=O)NC(=O)[C@]12Cc1ccc(NC(=O)Cn3c(=O)n(-c4cncnc4)c4ccccc43)cc1C2
2,7.41,CN1C(=O)NC(=O)[C@]12Cc1ccc(NC(=O)Cn3c(=O)n(-c4cnsc4)c4ccccc43)cc1C2
3,7.30,CN1C(=O)NC(=O)[C@]12Cc1ccc(NC(=O)Cn3c(=O)n(-c4nccc(C(F)(F)F)n4)c4ccccc43)cc1C2

# Tested on: not listed separately
# Assay: Bioavailability in dog at 2 mg/kg, po
# Assay type: ADME, organism-based, Canis lupus familiaris
# Conditions: in vivo
row,bioavailability [%],Structure (SMILES)
1,83,CN1C(=O)NC(=O)[C@]12Cc1ccc(NC(=O)Cn3c(=O)n(-c4ccccn4)c4ccccc43)cc1C2

# Tested on: not listed separately
# Assay: Bioavailability in rhesus at 2 mg/kg, po
# Assay type: ADME, organism-based, Macaca mulatta
# Conditions: rhesus monkey, in vivo
row,bioavailability [%],Structure (SMILES)
1,29,CN1C(=O)NC(=O)[C@]12Cc1ccc(NC(=O)Cn3c(=O)n(-c4ccccn4)c4ccccc43)cc1C2

# Tested on: not listed separately
# Assay: Half life in rat at 2 mpk, iv
# Assay type: ADME, organism-based
# Conditions: in vivo, 2 mg/kg
row,Structure (SMILES),half-life [h]
1,CN1C(=O)NC(=O)[C@]12Cc1ccc(NC(=O)Cn3c(=O)n(C4CCOC4)c4ccccc43)cc1C2 (stereo partly specified),0.9
2,COc1cccc(-n2c(=O)n(CC(=O)Nc3ccc4c(c3)C[C@]3(C4)C(=O)NC(=O)N3C)c3ccccc32)n1,1.2
3,CN1C(=O)NC(=O)[C@]12Cc1ccc(NC(=O)Cn3c(=O)n(-c4ccccn4)c4ccccc43)cc1C2,1.6
4,CN1C(=O)NC(=O)[C@]12Cc1ccc(NC(=O)Cn3c(=O)n(-c4cnccn4)c4ccccc43)cc1C2,1.1
5,CN1C(=O)NC(=O)[C@]12Cc1ccc(NC(=O)Cn3c(=O)n(-c4cc(F)cc(F)c4)c4ccccc43)cc1C2,6.5
6,CN1C(=O)NC(=O)[C@]12Cc1ccc(NC(=O)Cn3c(=O)n(C4CCS(=O)(=O)C4)c4ccccc43)cc1C2 (stereo partly specified),1.1

# Next, values leading:
row,half-life [h],Structure (SMILES)
1,0.5,CN1C(=O)NC(=O)[C@]12Cc1ccc(NC(=O)Cn3c(=O)n(-c4cncnc4)c4ccccc43)cc1C2
2,1,CN1C(=O)NC(=O)[C@]12Cc1ccc(NC(=O)Cn3c(=O)n(-c4cnsc4)c4ccccc43)cc1C2
3,2.8,CN1C(=O)NC(=O)[C@]12Cc1ccc(NC(=O)Cn3c(=O)n(-c4nccc(C(F)(F)F)n4)c4ccccc43)cc1C2

# Tested on: not listed separately
# Assay: Half life in dog at 0.5 mg/kg, iv
# Assay type: ADME, organism-based, Canis lupus familiaris
# Set-up: dose 0.5 mg/kg, route intravenous
# Conditions: in vivo
row,half-life [h],Structure (SMILES)
1,4.8,CN1C(=O)NC(=O)[C@]12Cc1ccc(NC(=O)Cn3c(=O)n(-c4ccccn4)c4ccccc43)cc1C2

# Tested on: not listed separately
# Assay: Half life in rhesus at 0.5 mpk, iv
# Assay type: ADME, organism-based, Macaca mulatta
# Conditions: rhesus monkey, in vivo, 0.5 mg/kg
row,half-life [h],Structure (SMILES)
1,9.6,CN1C(=O)NC(=O)[C@]12Cc1ccc(NC(=O)Cn3c(=O)n(-c4ccccn4)c4ccccc43)cc1C2

# Target: Cytochrome P450 3A4 (Homo sapiens, UniProt P08684)
# Sequence (P08684 whole entry): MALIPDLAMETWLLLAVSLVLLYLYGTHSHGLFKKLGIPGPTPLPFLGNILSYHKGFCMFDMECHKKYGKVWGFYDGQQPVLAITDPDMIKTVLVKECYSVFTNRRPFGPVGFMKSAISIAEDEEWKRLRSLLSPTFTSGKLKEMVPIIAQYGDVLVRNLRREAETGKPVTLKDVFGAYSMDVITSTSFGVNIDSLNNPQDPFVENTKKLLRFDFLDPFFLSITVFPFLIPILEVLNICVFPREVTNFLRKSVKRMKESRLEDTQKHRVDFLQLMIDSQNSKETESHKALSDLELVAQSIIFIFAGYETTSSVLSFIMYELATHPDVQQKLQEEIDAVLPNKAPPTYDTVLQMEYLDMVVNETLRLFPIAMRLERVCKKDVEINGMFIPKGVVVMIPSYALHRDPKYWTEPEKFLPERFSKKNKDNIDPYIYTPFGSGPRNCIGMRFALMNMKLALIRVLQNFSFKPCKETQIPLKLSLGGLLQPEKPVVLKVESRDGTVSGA
# Assay: Inhibition of CYP3A4
# Assay type: ADME
# Conditions: not given
row,pIC50,Structure (SMILES)
1,< 5.00,CN1C(=O)NC(=O)[C@]12Cc1ccc(NC(=O)Cn3c(=O)n(-c4ccccn4)c4ccccc43)cc1C2

# Target: Cytochrome P450 2C9 (Homo sapiens, UniProt P11712)
# Sequence (P11712 whole entry): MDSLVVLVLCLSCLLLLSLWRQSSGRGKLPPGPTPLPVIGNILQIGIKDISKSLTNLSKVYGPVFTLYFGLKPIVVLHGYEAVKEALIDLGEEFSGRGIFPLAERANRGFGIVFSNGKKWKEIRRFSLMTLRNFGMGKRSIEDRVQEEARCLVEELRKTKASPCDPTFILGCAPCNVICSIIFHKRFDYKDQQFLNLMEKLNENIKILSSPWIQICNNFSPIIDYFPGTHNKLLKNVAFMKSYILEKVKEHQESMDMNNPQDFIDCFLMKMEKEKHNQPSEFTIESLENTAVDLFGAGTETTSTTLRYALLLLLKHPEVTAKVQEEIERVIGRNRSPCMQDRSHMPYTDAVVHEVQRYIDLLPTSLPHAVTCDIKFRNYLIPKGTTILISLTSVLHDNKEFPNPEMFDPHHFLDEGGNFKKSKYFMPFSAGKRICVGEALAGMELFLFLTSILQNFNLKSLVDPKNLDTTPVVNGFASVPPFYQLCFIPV
# Assay: Inhibition of CYP2C9
# Assay type: ADME
# Conditions: not given
row,pIC50,Structure (SMILES)
1,< 5.00,CN1C(=O)NC(=O)[C@]12Cc1ccc(NC(=O)Cn3c(=O)n(-c4ccccn4)c4ccccc43)cc1C2

# Target: Cytochrome P450 2D6 (Homo sapiens, UniProt P10635)
# Sequence (P10635 whole entry): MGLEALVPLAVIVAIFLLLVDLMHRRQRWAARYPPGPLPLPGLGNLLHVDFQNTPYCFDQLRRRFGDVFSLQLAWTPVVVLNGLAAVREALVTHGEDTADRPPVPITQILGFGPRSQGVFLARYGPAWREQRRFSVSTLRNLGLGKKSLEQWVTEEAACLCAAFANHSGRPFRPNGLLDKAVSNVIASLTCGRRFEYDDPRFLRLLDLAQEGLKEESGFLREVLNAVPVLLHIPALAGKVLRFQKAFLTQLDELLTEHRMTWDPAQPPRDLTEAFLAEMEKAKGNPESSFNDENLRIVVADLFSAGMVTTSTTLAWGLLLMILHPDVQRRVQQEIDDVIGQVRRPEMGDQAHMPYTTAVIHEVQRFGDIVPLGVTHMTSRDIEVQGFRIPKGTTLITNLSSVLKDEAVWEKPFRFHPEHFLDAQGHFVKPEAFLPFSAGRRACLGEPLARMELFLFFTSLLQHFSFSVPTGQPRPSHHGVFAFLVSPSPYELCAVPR
# Assay: Inhibition of CYP2D6
# Assay type: ADME
# Conditions: not given
row,pIC50,Structure (SMILES)
1,< 5.00,CN1C(=O)NC(=O)[C@]12Cc1ccc(NC(=O)Cn3c(=O)n(-c4ccccn4)c4ccccc43)cc1C2

# Tested on: not listed separately
# Assay: Solubility at pH 7.4
# Assay type: physicochemical
# Conditions: buffer
row,solubility [µg/mL],Structure (SMILES)
1,> 100,CN1C(=O)NC(=O)[C@]12Cc1ccc(NC(=O)Cn3c(=O)n(-c4cncnc4)c4ccccc43)cc1C2
2,< 1,CN1C(=O)NC(=O)[C@]12Cc1ccc(NC(=O)Cn3c(=O)n(-c4ccccn4)c4ccccc43)cc1C2
3,> 100,CN1C(=O)NC(=O)[C@]12Cc1ccc(NC(=O)Cn3c(=O)n(C4CCS(=O)(=O)C4)c4ccccc43)cc1C2 (stereo partly specified)

# Tested on: not listed separately
# Assay: Clearance in rat at 2 mpk, iv
# Conditions: in vivo, 2 mg/kg
row,Structure (SMILES),clearance [mL/min/kg]
1,CN1C(=O)NC(=O)[C@]12Cc1ccc(NC(=O)Cn3c(=O)n(C4CCOC4)c4ccccc43)cc1C2 (stereo partly specified),9
2,COc1cccc(-n2c(=O)n(CC(=O)Nc3ccc4c(c3)C[C@]3(C4)C(=O)NC(=O)N3C)c3ccccc32)n1,11
3,CN1C(=O)NC(=O)[C@]12Cc1ccc(NC(=O)Cn3c(=O)n(-c4ccccn4)c4ccccc43)cc1C2,3.4
4,CN1C(=O)NC(=O)[C@]12Cc1ccc(NC(=O)Cn3c(=O)n(-c4cnccn4)c4ccccc43)cc1C2,11
5,CN1C(=O)NC(=O)[C@]12Cc1ccc(NC(=O)Cn3c(=O)n(-c4cc(F)cc(F)c4)c4ccccc43)cc1C2,3.1
6,CN1C(=O)NC(=O)[C@]12Cc1ccc(NC(=O)Cn3c(=O)n(C4CCS(=O)(=O)C4)c4ccccc43)cc1C2 (stereo partly specified),31

# Now from value to compound:
row,clearance [mL/min/kg],Structure (SMILES)
1,46,CN1C(=O)NC(=O)[C@]12Cc1ccc(NC(=O)Cn3c(=O)n(-c4cncnc4)c4ccccc43)cc1C2
2,60,CN1C(=O)NC(=O)[C@]12Cc1ccc(NC(=O)Cn3c(=O)n(-c4cnsc4)c4ccccc43)cc1C2
3,7.5,CN1C(=O)NC(=O)[C@]12Cc1ccc(NC(=O)Cn3c(=O)n(-c4nccc(C(F)(F)F)n4)c4ccccc43)cc1C2

# Tested on: not listed separately
# Assay: Clearance in dog at 0.5 mpk, iv
# Conditions: in vivo, 0.5 mg/kg
row,clearance [mL/min/kg],Structure (SMILES)
1,1.7,CN1C(=O)NC(=O)[C@]12Cc1ccc(NC(=O)Cn3c(=O)n(-c4ccccn4)c4ccccc43)cc1C2

# Tested on: not listed separately
# Assay: Clearance in rhesus at 0.5 mpk, iv
# Conditions: Macaca mulatta, rhesus monkey, in vivo, 0.5 mg/kg
row,clearance [mL/min/kg],Structure (SMILES)
1,0.85,CN1C(=O)NC(=O)[C@]12Cc1ccc(NC(=O)Cn3c(=O)n(-c4ccccn4)c4ccccc43)cc1C2

# Tested on: Rattus norvegicus
# Assay: Volume of distribution in rat at 2 mpk, iv
# Conditions: in vivo, 2 mg/kg
row,Structure (SMILES),Vdss [L/kg]
1,CN1C(=O)NC(=O)[C@]12Cc1ccc(NC(=O)Cn3c(=O)n(C4CCOC4)c4ccccc43)cc1C2 (stereo partly specified),0.43
2,COc1cccc(-n2c(=O)n(CC(=O)Nc3ccc4c(c3)C[C@]3(C4)C(=O)NC(=O)N3C)c3ccccc32)n1,0.84
3,CN1C(=O)NC(=O)[C@]12Cc1ccc(NC(=O)Cn3c(=O)n(-c4ccccn4)c4ccccc43)cc1C2,0.47
4,CN1C(=O)NC(=O)[C@]12Cc1ccc(NC(=O)Cn3c(=O)n(-c4cnccn4)c4ccccc43)cc1C2,0.64
5,CN1C(=O)NC(=O)[C@]12Cc1ccc(NC(=O)Cn3c(=O)n(-c4cc(F)cc(F)c4)c4ccccc43)cc1C2,1.4
6,CN1C(=O)NC(=O)[C@]12Cc1ccc(NC(=O)Cn3c(=O)n(C4CCS(=O)(=O)C4)c4ccccc43)cc1C2 (stereo partly specified),0.8

# Results, then the compound that gave them:
row,Vdss [L/kg],Structure (SMILES)
1,0.95,CN1C(=O)NC(=O)[C@]12Cc1ccc(NC(=O)Cn3c(=O)n(-c4cncnc4)c4ccccc43)cc1C2
2,2,CN1C(=O)NC(=O)[C@]12Cc1ccc(NC(=O)Cn3c(=O)n(-c4cnsc4)c4ccccc43)cc1C2
3,1.8,CN1C(=O)NC(=O)[C@]12Cc1ccc(NC(=O)Cn3c(=O)n(-c4nccc(C(F)(F)F)n4)c4ccccc43)cc1C2

# Tested on: Canis familiaris
# Assay: Volume of distribution in dog at 0.5 mpk, iv
# Conditions: in vivo, 0.5 mg/kg
row,Vdss [L/kg],Structure (SMILES)
1,0.69,CN1C(=O)NC(=O)[C@]12Cc1ccc(NC(=O)Cn3c(=O)n(-c4ccccn4)c4ccccc43)cc1C2

# Tested on: Rhesus monkey
# Assay: Volume of distribution in rhesus at 0.5 mpk, iv
# Conditions: Macaca mulatta, in vivo, 0.5 mg/kg
row,Vdss [L/kg],Structure (SMILES)
1,0.31,CN1C(=O)NC(=O)[C@]12Cc1ccc(NC(=O)Cn3c(=O)n(-c4ccccn4)c4ccccc43)cc1C2

# Source: ChEMBL document CHEMBL1146172, “Identification of novel, orally bioavailable spirohydantoin CGRP receptor antagonists” (Bioorg Med Chem Lett, 2006)
